{"source": "patent US6642227B2", "about": "“Inhibitors of c-Jun N-terminal kinases (JNK) and other protein kinases” (Vertex Pharmaceuticals Incorporated, priority 2001, dated 2003)", "type_in_all_cases": "biochemical", "key": {"human Lck kinase": {"biological_target": "human Lck kinase (UniProt P06239)", "experiment": "Lck inhibition assay (A: radioactivity-based or B: spectrophotometric coupled-enzyme assay)", "conditions": "read-out: Lck Activity (Ki rating)", "procedure": "The compounds were evaluated as inhibitors of human Lck kinase using either a radioactivity-based assay or spectrophotometric assay.\nThe compounds were assayed as inhibitors of full length bovine thymus Lck kinase (from Upstate Biotechnology, cat. no. 14-106) expressed and purified from baculo viral cells. Lck kinase activity was monitored by following the incorporation of ^33p from ATP into the tyrosine of a random poly Glu-Tyr polymer substrate of composition, Glu:Tyr=4:1 (Sigma, cat. no. P-0275). The following were the final concentrations of the assay components: 0.025 M HEPES, pH 7.6, 10 mM MgCl2, 2 mM DTT, 0.25 mg/ml BSA, 10 μM ATP (1-2 μCi ^33P-ATP per reaction), 5 mg/ml poly Glu-Tyr, and 1-2 units of recombinant human […] kinase. In a typical assay, all the reaction components with the exception of ATP were pre-mixed and aliquoted into assay plate wells. Inhibitors dissolved in DMSO were added to the wells to give a final DMSO concentration of 2.5%. The assay plate was incubated at 30 C. for 10 min before initiating the reaction with ^33P-ATP. After 20 min of reaction, the reactions were quenched with 150 μl of 10% trichloroacetic acid (TCA) containing 20 mM Na3PO4. The quenched samples were then transferred to a 96-well filter plate (Whatman, UNI-Filter GF/F Glass Fiber Filter, cat no. 7700-3310) installed on a filter plate vacuum manifold. Filter plates were washed four times with 10% TCA containing 20 mM Na3PO4 and then 4 times with methanol. 200 μl of scintillation fluid was then added to each well. The plates were sealed and the amount of radioactivity associated with the filters was quantified on a TopCount scintillation counter. The radioactivity incorporated was plotted as a function of the inhibitor concentration. The data was fitted to a competitive inhibition kinetics model to get the Ki for the compound.\n(§1) The ADP produced from ATP by the human recombinant Lck kinase-catalyzed phosphorylation of poly Glu-Tyr substrate was quanitified using a coupled enzyme assay (Fox et al (1998) Protein Sci 7, 2249). In this assay one molecule of NADH is oxidised to NAD for every molecule of ADP produced in the kinase reaction. The disappearance of NADH can be conveniently followed at 340 nm.\n(§2) The following were the final concentrations of the assay components: 0.025 M HEPES, pH 7.6, 10 mM MgCl2, 2 mM DTT, 5 mg/ml poly Glu-Tyr, and 50 nM of recombinant human Lck kinase. Final concentrations of the components of the coupled enzyme system were 2.5 mM phosphoenolpyruvate, 200 μM NADH, 30 μg/ml pyruvate kinase and 10 μg/ml lactate dehydrogenase.\n(§3) In a typical assay, all the reaction components with the exception of ATP were pre-mixed and aliquoted into assay plate wells. Inhibitors dissolved in DMSO were added to the wells to give a final DMSO concentration of 2.5%. The assay plate was incubated at 30° C. for 10 min before initiating the reaction with 150 μM ATP. The absorbance change at 340 nm with time, the rate of the reaction, was monitored on a molecular devices plate reader. The data of rate as a function of the inhibitor concentration was fitted to competitive inhibition kinetics model to get the Ki for the compound."}, "activated JNK3": {"biological_target": "T1, activated JNK3 (Homo sapiens, UniProt P53779)", "T1 construct": "One such construct encodes amino acid residues Ser40-Glu402 of JNK3α1 and is preceded by Met and Gly residues; Met-Gly dipeptide (initiator Met plus Gly added for the NcoI site) (N); made in house; host or cells: E. coli BL21 (DE3)", "T1 sequence (P53779 40-402)": "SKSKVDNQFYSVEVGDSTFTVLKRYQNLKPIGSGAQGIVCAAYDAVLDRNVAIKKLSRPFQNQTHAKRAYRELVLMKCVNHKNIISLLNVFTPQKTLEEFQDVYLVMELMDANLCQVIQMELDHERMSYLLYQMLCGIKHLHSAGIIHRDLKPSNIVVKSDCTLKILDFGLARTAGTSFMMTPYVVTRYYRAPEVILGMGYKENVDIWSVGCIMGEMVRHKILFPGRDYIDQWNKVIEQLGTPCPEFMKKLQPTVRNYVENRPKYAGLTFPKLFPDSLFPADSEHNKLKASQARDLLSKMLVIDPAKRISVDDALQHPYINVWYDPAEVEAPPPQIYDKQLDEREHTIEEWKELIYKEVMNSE", "experiment": "JNK inhibition assay (spectrophotometric coupled-enzyme assay)", "excerpt": "A BLAST search of the EST database using the published JNK3α1 cDNA as a query identified an EST clone (#632588) that contained the entire coding sequence for human JNK3α1. Polymerase chain reactions (PCR) using pfu polymerase (Strategene) were used to introduce restriction sites into the cDNA for cloning into the pET-15B expression vector at the NcoI and BamHI sites. The protein was expressed in E. coli. Due to the poor solubility of the expressed full-length protein (Met 1-Gln 422), an N-terminally truncated protein starting at Ser residue at position 40 (Ser 40) was produced. This truncation corresponds to Ser 2 of JNK1 and JNK2 proteins, and is preceded by a methionine (initiation) and a glycine residue. The glycine residue was added in order to introduce an NcoI site for cloning into the expression vector. In addition, systematic C-terminal truncations were performed by PCR to identify a construct that give rise to diffraction-quality crystals. One such construct encodes amino acid residues Ser40-Glu402 of JNK3α1 and is preceded by Met and Gly residues.\nThe construct was prepared by PCR using deoxyoligonucleotides: 5′ […] 3′ (forward primer with initiation codon underlined)(SEQ ID NO:1) and 5′ […] 3′ (reverse primer with stop codon underlined)(SEQ ID NO:2) as primers and was confirmed by DNA sequencing.\nE.coli strain BL21 (DE3) (Novagen) was transformed with the JNK3 expression construct and grown at 30° C. in LB supplemented with 100 μg/ml carbenicillin in shaker flasks until the cells were in log phase (OD600˜0.8). Isopropylthio-β-D-[…] (IPTG) was added to a final concentration of 0.8 mM and the cells were harvested 2 hours later by centrifugation.\nE. coli cell paste containing JNK3 was resuspended in 10 volumes/g lysis buffer (50 mM HEPES, pH 7.2, containing 10% glycerol (v/v), 100 mM NaCl, 2 mM DTT, 0.1 mM PMSF, 2 μg/ml Pepstatin, lug/ml each of E-64 and Leupeptin). Cells were lysed on ice using a microfluidizer and centrifuged at 100,000×g for 30 min at 4° C. The 100,000×g supernatant was diluted 1:5 with Buffer A (20 mM HEPES, pH 7.0, 10% glycerol (v/v), 2 mM DTT) and purified by SP-Sepharose (Pharmacia) cation-exchange chromatography (column dimensions: 2.6×20 cm) at 4° C. The resin was washed with 5 column volumes of Buffer A, followed by 5 column volumes of Buffer A containing 50 mM NaCl. Bound JNK3 was eluted with a 7.5 column volume linear gradient of 50-300 mM NaCl. JNK3 eluted between 150-200 mM NaCl.\nFive mg of JNK3 was diluted to 0.5 mg/ml in 50 mM HEPES buffer, pH 7.5, containing 100 mM NaCl, 5 mM DTT, 20 mM MgCl2 and 1 mM ATP. GST-MKK7(DD) was added at a molar ratio of 1:2.5 GST-MKK7:JNK3. After incubation for 30 minutes at 25° C., the reaction mixture was concentrated 5-fold by ultrafiltration in a Centriprep-30 (Amicon, Beverly, Mass.), diluted to 10 ml and an additional 1 mM ATP added. This procedure was repeated three times to remove ADP and replenish ATP. The final addition of ATP was 5 mM and the mixture incubated overnight at 4° C.\nThe activated JNK3/GST-MKK7(DD) reaction mixture was exchanged into 50 mM HEPES buffer, pH 7.5, containing 5 mM DTT and 5% glycerol (w/v) by dialysis or ultrafiltration. The reaction mixture was adjusted to 1.1 M potassium phosphate, pH 7.5, and purified by hydrophobic interaction chromatography (at 25° C.) using a Rainin Hydropore column. […] Activated JNK3 (i.e. doubly phosphorylated JNK3) was stored at −70° C. at 0.25-1 mg/ml.\nCompounds were assayed for the inhibition of JNK3 by a spectrophotometric coupled-enzyme assay. In this assay, a fixed concentration of activated JNK3 (10 nM) was incubated with various concentrations of a potential inhibitor dissolved in DMSO for 10 minutes at 30° C. in a buffer containing 0.1 M HEPES buffer, pH 7.5, containing 10 mM MgCl2, 2.5 mM phosphoenolpyruvate, 200 μM NADH, 150 μg/mL pyruvate kinase, 50 μg/mL lactate dehydrogenase, and 200 μM EGF receptor peptide. […]"}, "human Src kinase": {"biological_target": "T2, human Src kinase (Homo sapiens, UniProt P12931)", "T2 construct": "full length recombinant human Src kinase; purchased Upstate Biotechnology 14-117; host or cells: baculovirus-infected cells", "T2 sequence (P12931 whole entry)": "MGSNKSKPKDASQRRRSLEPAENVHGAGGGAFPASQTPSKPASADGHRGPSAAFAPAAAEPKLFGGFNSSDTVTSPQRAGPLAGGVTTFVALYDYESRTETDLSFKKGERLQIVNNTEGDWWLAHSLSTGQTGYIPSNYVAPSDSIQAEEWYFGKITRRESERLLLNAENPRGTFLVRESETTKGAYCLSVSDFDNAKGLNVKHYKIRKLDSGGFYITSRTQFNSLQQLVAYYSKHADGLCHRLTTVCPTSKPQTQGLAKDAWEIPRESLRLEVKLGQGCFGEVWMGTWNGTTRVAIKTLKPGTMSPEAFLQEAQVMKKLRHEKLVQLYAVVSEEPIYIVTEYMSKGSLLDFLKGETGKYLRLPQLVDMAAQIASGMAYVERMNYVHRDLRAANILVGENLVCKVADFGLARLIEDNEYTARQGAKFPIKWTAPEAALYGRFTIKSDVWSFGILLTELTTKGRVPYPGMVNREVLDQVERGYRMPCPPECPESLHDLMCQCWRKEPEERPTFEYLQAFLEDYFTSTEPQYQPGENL", "experiment": "Src inhibition assay (A: radioactivity-based or B: spectrophotometric coupled-enzyme assay)", "conditions": "assay A or B not specified; inhibitor concentration not given", "procedure": "The compounds were evaluated as inhibitors of human Src kinase using either a radioactivity-based assay or spectrophotometric assay.\nThe compounds were assayed as inhibitors of full length recombinant human Src kinase (from Upstate Biotechnology, cat. no. 14-117) expressed and purified from baculo viral cells. Src kinase activity was monitored by following the incorporation of ^33p from ATP into the tyrosine of a random poly Glu-Tyr polymer substrate of composition, Glu:Tyr=4:1 (Sigma, cat. no. P-0275). The following were the final concentrations of the assay components: 0.05 M HEPES, pH 7.6, 10 mM MgCl2, 2 mM DTT, 0.25 mg/ml BSA, 10 μM ATP (1-2 uCi ^33P-ATP per reaction), 5 mg/ml poly Glu-Tyr, and 1-2 units of recombinant human Src kinase. In a typical assay, all the reaction components with the exception of ATP were pre-mixed and aliquoted into assay plate wells.\nInhibitors dissolved in DMSO were added to the wells to give a final DMSO concentration of 2.5%. The assay plate was incubated at 30° C. for 10 min before initiating the reaction with ^33P-ATP. After 20 min of reaction, the reactions were quenched with 150 μl of 10% trichloroacetic acid (TCA) containing 20 mM Na3PO4. The quenched samples were then transferred to a 96-well filter plate (Whatman, UNI-Filter GF/F Glass Fiber Filter, cat no. 7700-3310) installed on a filter plate vacuum manifold. Filter plates were washed four times with 10% TCA containing 20 mM Na3PO4 and then 4 times with methanol. 200 μl of scintillation fluid was then added to each well. The plates were sealed and the amount of radioactivity associated with the filters was quantified on a TopCount scintillation counter. The radioactivity incorporated was plotted as a function of the inhibitor concentration. The data was fitted to a competitive inhibition kinetics model to get the Ki for the compound.\nas §1, with “Src” for “Lck”\nas §2, with “DTT, 0.25” for “DTT, 5”, “and 25” for “and 50”, “human Src” for “human Lck”\nas §3, with “30” for “30°”, “100” for “150”, “compettive” for “competitive”"}}}
{"smiles": "Cc1cnc(Nc2ccccc2)nc1-c1sc(SCc2ccc(O)cc2)c(C#N)c1-c1cccc(Cl)c1", "note": "[Compound V-1, 4-(3-chloro-phenyl)-2-(4-hydroxy-benzylsulfanyl)-5-(5-methyl-2-phenylamino-pyrimidin-4-yl)-thiophene-3-carbonitrile]", "values": [{"measurement": "Ki", "setting": "human Lck kinase", "value": "< 0.1", "unit": "µM"}, {"measurement": "Ki", "setting": "activated JNK3; activated JNK3 10 nM, 10 μM ATP, 30° C., read-out: JNK3 Activity (Ki class A-C)", "value": "0.1 to 1", "unit": "µM"}]}
{"smiles": "CSc1sc(-c2nc(C)cs2)c(C)c1-c1ccnc(Nc2ccccc2)n1", "note": "[IIb-1, {4-[4-methyl-2-methylsulfanyl-5-(4-methyl-thiazol-2-yl)-thiophen-3-yl]-pyrimidin-2-yl}-phenylamine]", "values": [{"measurement": "Src Activity (percent inhibition class D-F)", "setting": "human Src kinase", "value": "D (Compounds having an activity designated as “D” provided a percent inhibition less than or equal to 24%)"}, {"measurement": "JNK3 Activity (percent inhibition class D-F)", "setting": "activated JNK3; inhibitor concentration not given", "value": "D (Compounds having an activity designated as “D” provided a percent inhibition less than or equal to 24%)"}]}
